Experimental data from patent US11427528B2 (Zhejiang University of Technology, priority 2016, dated 2022).
“Also recorded” adds a separate entry of the source. Read-outs that look alike come from different tables or passages of the source.

Key:
[1] = Stability experiment, light exposure (XRPD); assay type: physicochemical; settings: 4500±500 lx, 25° C., open petri dish, XRPD compared with 0th day
Description: (§1) The instrument used for collecting X-ray powder diffraction (XRPD) patterns is Bruker D8 Advance diffractometer. The samples are tested at room temperature under the following conditions: 2θ scan range, 3-40°; step size, 0.02°/step; speed, 0.2 s/step.
(§2) They were placed at 4500±500 lx light exposure, and 90±5% RH humidity chamber at 25° C., respectively. The XRPD results of the 5th day and 10th day were compared with that of the 0th day.

[2] = Stability experiment, high humidity (XRPD); assay type: physicochemical; settings: 90±5% RH, 25° C., open petri dish, XRPD compared with 0th day
Description: as §1, §2

[3] = Grinding test in ball mill (XRPD); assay type: physicochemical; settings: 20 Hz, 100 mg, XRPD compared with unground sample
Description: as §1

[4] = cited from earlier work
[5] = Storage stability at room temperature; assay type: physicochemical; settings: 3 months

Stability at room temperature [5]	SMILES	Crystalline form after light exposure for 10 days [1]	Crystalline form after high humidity for 10 days [2]	Crystalline form after grinding for 10 min [3]	Form change at room temperature ([4]; in one day at room temperature)	Form change at room temperature ([4]; after two days at room temperature)	Form change after mechanical grinding ([4]; mechanical grinding)
–	CC(C)OC(=O)C(C)(C)Oc1ccc(C(=O)c2ccc(Cl)cc2)cc1 [Form I, reference compound]	Form I	Form I	Form I	–	–	–
–	CC(C)OC(=O)C(C)(C)Oc1ccc(C(=O)c2ccc(Cl)cc2)cc1 [Form III]	–	–	–	transformed to Form II and Form I	–	–
–	CC(C)OC(=O)C(C)(C)Oc1ccc(C(=O)c2ccc(Cl)cc2)cc1 [Form II]	–	–	–	–	transformed to Form I	transformed to Form I
remains stable	CC(C)OC(=O)C(C)(C)Oc1ccc(C(=O)c2ccc(Cl)cc2)cc1 [Form IV]	does not change its crystalline form; also recorded: Form IV	does not change its crystalline form; also recorded: Form IV	does not change its crystalline form; also recorded: Form IV	–	–	–
